Laboratory results published in patent US6737383B1, “Herbicidal oxadiazolidines” (priority 1999, dated 2004).

Assays:
crabgrass = test: Test B pre/postemergence crabgrass; format: in vivo, Digitaria sanguinalis
Outline: (§1)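 Test chemicals in a non-phytotoxic solvent mixture with surfactant were sprayed preemergence onto planted seeds and postemergence onto plants 2 to 18 cm tall (1- to 4-leaf stage). After twelve to sixteen days in a greenhouse, injury was visually rated against untreated controls from 0 (no effect) to 10 (complete control).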

duck salad = test: Test B flood test duck salad; format: in vivo, Heteranthera limosa
Outline: (§2)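 Plants were grown to the 2-leaf stage before treatment with test chemical, then held in a greenhouse for twelve to sixteen days. Injury was visually rated against untreated controls on a 0–10 scale, where 0 is no effect and 10 is complete control.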

wild oat = test: Test B pre/postemergence wild oat; format: in vivo, Avena fatua
Outline: as §1

pigweed = test: Test B pre/postemergence pigweed; format: in vivo, Amaranthus retroflexus
Outline: as §1

purple nutsedge = test: Test B pre/postemergence purple nutsedge; format: in vivo, Cyperus rotundus
Outline: as §1

wheat = test: Test B pre/postemergence wheat; format: in vivo, Triticum aestivum
Outline: as §1

corn = test: Test B pre/postemergence corn; format: in vivo, Zea mays
Outline: as §1

rice = test: Test B flood test rice; format: in vivo, Oryza sativa
Outline: as §2

giant foxtail = test: Test B pre/postemergence giant foxtail; format: in vivo, Setaria faberii
Outline: as §1

cocklebur = test: Test B pre/postemergence cocklebur; format: in vivo, Xanthium strumarium
Outline: as §1

velvetleaf = test: Test B pre/postemergence velvetleaf; format: in vivo, Abutilon theophrasti
Outline: as §1

blackgrass = test: Test B pre/postemergence blackgrass; format: in vivo, Alopecurus myosuroides
Outline: as §1

rape = test: Test B pre/postemergence rape; format: in vivo, Brassica napus
Outline: as §1

sugar beet = test: Test B pre/postemergence sugar beet; format: in vivo, Beta vulgaris
Outline: as §1

morningglory = test: Test B pre/postemergence morningglory; format: in vivo, Ipomoea hederacea
Outline: as §1

smallflower flatsedge = test: Test B flood test smallflower flatsedge; format: in vivo, Cyperus difformis
Outline: as §2

bedstraw = test: Test B pre/postemergence bedstraw; format: in vivo, Galium aparine
Outline: as §1

bamyardgrass = test: Test B flood test barnyardgrass; format: in vivo, Echinochloa crus-galli
Outline: as §2

soybean = test: Test B pre/postemergence soybean; format: in vivo, Glycine max
Outline: as §1

surinam grass = test: Test B pre/postemergence surinam grass; format: in vivo, Brachiaria decumbens
Outline: as §1

[1] = Preemergence, Rate 62 g/ha, scale of 0 to 10 where 0 is no effect and 10 is complete control
[2] = Preemergence, Rate 250 g/ha, scale of 0 to 10 where 0 is no effect and 10 is complete control
[3] = Preemergence, Rate 500 g/ha, scale of 0 to 10 where 0 is no effect and 10 is complete control
[4] = Rate 125 g/ha, Preemergence, scale of 0 to 10 where 0 is no effect and 10 is complete control
[5] = Rate 500 g/ha, Postemergence, scale 0 to 10, 0 no effect, 10 complete control
[6] = Rate 62 g/ha, headed Pre-emergence (flood test species), scale 0 to 10 (0 no effect, 10 complete control)
[7] = Rate 125 g/ha, Pre-emergence, flood test species, scale 0 to 10 where 0 is no effect and 10 is complete control
[8] = Rate 250 g/ha, Pre-emergence, flood-test species, scale 0 to 10, 0 is no effect, 10 is complete control
[9] = Rate 500 g/ha, Pre-emergence, flood test species, scale 0 to 10 (0 no effect, 10 complete control)
[10] = Rate 62 g/ha, Postemergence, scale of 0 to 10 where 0 is no effect and 10 is complete control
[11] = Rate 125 g/ha, Postemergence, scale 0 to 10

CC(C)N(C(=O)n1oc(=O)n(CCC2CCCCC2)c1=O)c1ccc(F)cc1 [Compound 257]
Crabgrass plant response rating (crabgrass; [1]): 0 | Crabgrass plant response rating (crabgrass; [2]): 2 | Plant response rating, Crabgrass (crabgrass; [3]): 5 | Crabgrass plant response rating (crabgrass; [4]): 2 | Plant response rating (0 to 10; 0 is no effect, 10 is complete control), Crabgrass (crabgrass; Rate 250 g/ha, Postemergence): 2 | Crabgrass plant response rating (crabgrass; [5]): 4 | Ducksalad plant response rating (duck salad; [6]): 0 | Ducksalad plant response rating (duck salad; [7]): 0 | Ducksalad plant response rating (duck salad; [8]): 0 | Ducksalad plant response rating (duck salad; [9]): 0 | Wild oats plant response rating (wild oat; [1]): 0 | Wild oats plant response rating (wild oat; [2]): 0 | Plant response rating, Wild oats (wild oat; [3]): 4 | Wild oats plant response rating (wild oat; [4]): 0 | Wild oats plant response rating (wild oat; [5]): 0 | Redroot pigweed plant response rating (pigweed; [1]): 0 | Redroot pigweed plant response rating (pigweed; [2]): 0 | Plant response rating, Redroot pigweed (pigweed; [3]): 4 | Redroot pigweed plant response rating (pigweed; [4]): 0 | Plant response rating (0 to 10; 0 is no effect, 10 is complete control), Redroot pigweed (pigweed; Rate 250 g/ha, Postemergence): 4 | Redroot pigweed plant response rating (pigweed; [5]): 6 | Nutsedge plant response rating (purple nutsedge; [2]): 0 | Plant response rating, Nutsedge (purple nutsedge; [3]): 0 | Nutsedge plant response rating (purple nutsedge; [4]): 0 | Plant response rating (0 to 10; 0 is no effect, 10 is complete control), Nutsedge (purple nutsedge; Rate 250 g/ha, Postemergence): 0 | Nutsedge plant response rating (purple nutsedge; [5]): 0 | Wheat plant response rating (wheat; [1]): 0 | Wheat plant response rating (wheat; [2]): 0 | Plant response rating, Wheat (wheat; [3]): 4 | Wheat plant response rating (wheat; [4]): 0 | Wheat plant response rating (wheat; [5]): 0 | Corn plant response rating (corn; [1]): 0 | Corn plant response rating (corn; [2]): 0 | Plant response rating, Corn (corn; [3]): 0 | Corn plant response rating (corn; [10]): 0 | Corn plant response rating (corn; [11]): 0 | Corn plant response rating (corn; [4]): 0 | Plant response rating (0 to 10; 0 is no effect, 10 is complete control), Corn (corn; Rate 250 g/ha, Postemergence): 0 | Corn plant response rating (corn; [5]): 0 | Rice plant response rating (rice; [6]): 0 | Rice plant response rating (rice; [7]): 0 | Rice plant response rating (rice; [8]): 0 | Rice plant response rating (rice; [9]): 0 | Giant foxtail plant response rating (giant foxtail; [1]): 3 | Giant foxtail plant response rating (giant foxtail; [2]): 6 | Plant response rating, Giant foxtail (giant foxtail; [3]): 9 | Giant foxtail plant response rating (giant foxtail; [4]): 6 | Plant response rating (0 to 10; 0 is no effect, 10 is complete control), Giant foxtail (giant foxtail; Rate 250 g/ha, Postemergence): 0 | Giant foxtail plant response rating (giant foxtail; [5]): 2 | Cocklebur plant response rating (cocklebur; [1]): 0 | Cocklebur plant response rating (cocklebur; [2]): 0 | Plant response rating, Cocklebur (cocklebur; [3]): 0 | Cocklebur plant response rating (cocklebur; [10]): 0 | Cocklebur plant response rating (cocklebur; [11]): 0 | Cocklebur plant response rating (cocklebur; [4]): 0 | Plant response rating (0 to 10; 0 is no effect, 10 is complete control), Cocklebur (cocklebur; Rate 250 g/ha, Postemergence): 0 | Cocklebur plant response rating (cocklebur; [5]): 0 | Velvetleaf plant response rating (velvetleaf; [1]): 0 | Velvetleaf plant response rating (velvetleaf; [2]): 0 | Plant response rating, Velvetleaf (velvetleaf; [3]): 0 | Velvetleaf plant response rating (velvetleaf; [4]): 0 | Velvetleaf plant response rating (velvetleaf; [5]): 1 | Blackgrass plant response rating (blackgrass; [1]): 0 | Blackgrass plant response rating (blackgrass; [2]): 0 | Plant response rating, Blackgrass (blackgrass; [3]): 0 | Blackgrass plant response rating (blackgrass; [10]): 0 | Blackgrass plant response rating (blackgrass; [11]): 0 | Blackgrass plant response rating (blackgrass; [4]): 0 | Plant response rating (0 to 10; 0 is no effect, 10 is complete control), Blackgrass (blackgrass; Rate 250 g/ha, Postemergence): 1 | Blackgrass plant response rating (blackgrass; [5]): 2 | Rape plant response rating (rape; [1]): 0 | Rape plant response rating (rape; [2]): 0 | Plant response rating, Rape (rape; [3]): 0 | Rape plant response rating (rape; [4]): 0 | Plant response rating (0 to 10; 0 is no effect, 10 is complete control), Rape (rape; Rate 250 g/ha, Postemergence): 2 | Rape plant response rating (rape; [5]): 5 | Sugarbeets plant response rating (sugar beet; [1]): 0 | Sugarbeets plant response rating (sugar beet; [2]): 0 | Plant response rating, Sugarbeets (sugar beet; [3]): 0 | Sugarbeets plant response rating (sugar beet; [4]): 0 | Sugarbeets plant response rating (sugar beet; [5]): 5 | Morningglory plant response rating (morningglory; [1]): 0 | Morningglory plant response rating (morningglory; [2]): 2 | Plant response rating, Morningglory (morningglory; [3]): 4 | Morningglory plant response rating (morningglory; [4]): 0 | Plant response rating (0 to 10; 0 is no effect, 10 is complete control), Morningglory (morningglory; Rate 250 g/ha, Postemergence): 8 | Morningglory plant response rating (morningglory; [5]): 8 | S. Flatsedge plant response rating (smallflower flatsedge; [6]): 0 | S. Flatsedge plant response rating (smallflower flatsedge; [7]): 0 | S. Flatsedge plant response rating (smallflower flatsedge; [8]): 0 | S. Flatsedge plant response rating (smallflower flatsedge; [9]): 0 | Bedstraw plant response rating (bedstraw; [1]): 0 | Bedstraw plant response rating (bedstraw; [2]): 0 | Plant response rating, Bedstraw (bedstraw; [3]): 0 | Bedstraw plant response rating (bedstraw; [10]): 0 | Bedstraw plant response rating (bedstraw; [11]): 0 | Bedstraw plant response rating (bedstraw; [4]): 0 | Plant response rating (0 to 10; 0 is no effect, 10 is complete control), Bedstraw (bedstraw; Rate 250 g/ha, Postemergence): 0 | Bedstraw plant response rating (bedstraw; [5]): 0 | Barnyardgrass plant response rating (bamyardgrass; [6]): 0 | Barnyardgrass plant response rating (bamyardgrass; [7]): 0 | Barnyardgrass plant response rating (bamyardgrass; [8]): 0 | Barnyardgrass plant response rating (bamyardgrass; [9]): 0 | Soybean plant response rating (soybean; [1]): 0 | Soybean plant response rating (soybean; [2]): 0 | Plant response rating, Soybean (soybean; [3]): 0 | Soybean plant response rating (soybean; [4]): 0 | Soybean plant response rating (soybean; [5]): 4 | B. signalgrass plant response rating (surinam grass; [1]): 0 | B. signalgrass plant response rating (surinam grass; [2]): 0 | Plant response rating, B. signalgrass (surinam grass; [3]): 3 | B. signalgrass plant response rating (surinam grass; [10]): 0 | B. signalgrass plant response rating (surinam grass; Rate 125 g/ha, Postemergence, scale 0 (no effect) to 10 (complete control)): 0 | B. signalgrass plant response rating (surinam grass; [4]): 0 | Plant response rating (0 to 10; 0 is no effect, 10 is complete control), B. signalgrass (surinam grass; Rate 250 g/ha, Postemergence): 0 | B. signalgrass plant response rating (surinam grass; [5]): 0
